Measured values reported in the NIST ThermoML archive (doi:10.1016/j.jct.2018.09.026).

Test: mn = molality of the nth substance listed, in mol/kg
Conditions: 100 kPa, Liquid; for speed of sound: Frequency=3 MHz, Single path-length method; for mass density: Vibrating tube method

CNCCC=C1c2ccccc2CCc2ccccc21.Cl + O
Conditions | mass density, 288.15 K [kg/m3] | mass density, 293.15 K [kg/m3] | mass density, 298.15 K [kg/m3] | mass density, 303.15 K [kg/m3] | mass density, 308.15 K [kg/m3] | speed of sound, 288.15 K [m/s] | speed of sound, 293.15 K [m/s] | speed of sound, 298.15 K [m/s] | speed of sound, 303.15 K [m/s] | speed of sound, 308.15 K [m/s]
m1 = 0.025 | 1000.19 | 999.27 | 998.086 | 996.667 | 995.032 | 1471.8 | 1487.4 | 1501.2 | 1513.2 | 1523.6
m1 = 0.05 | 1001.25 | 1000.3 | 999.096 | 997.655 | 995.999 | 1475.9 | 1491.2 | 1504.8 | 1516.7 | 1526.8
m1 = 0.075 | 1002.26 | 1001.3 | 1000.07 | 998.612 | 996.941 | 1478.3 | 1493.7 | 1507.2 | 1519 | 1529.1
